What was measured:
mouse NMUR2 = biological target: T1, mouse NMUR2 (Mus musculus, UniProt Q8BZ39); assay: FLIPR calcium mobilization assay, mouse NMUR2 cell line; assay type: cell-based
T1 construct: expressed in transfected cells; host or cells: FLP-In CHO cells and HEK-293 FLP-In cells (pcDNA5)
Source text: (§1) Human, mouse or rat cDNAs encoding NMUR1 or NMUR2 (as described in Howard et al. Nature 406: 70-74 (2000) were subcloned in pcDNA5 (Invitrogen) and transfected into FLP-In CHO cells and HEK-293 FLP-In cells purchased from Invitrogen (Carlsbad, Calif.) using lipofectamine (Invitrogen). The Flp-In system allows integration and expression of a particular gene of interest at a specific genomic location utilizing the Flp recombinase from yeast. The transfected cells were selected by growth in medium containing 200 μg/mL hygromycin (Invitrogen). Populations were frozen at early passage numbers, and these stocks were used for further studies. Stable clones that expressed the mRNAs were identified functionally by FLIPR as well as by RT-PCR. […] Two different rodent NMUR1 cell lines were thus generated: one with the codon as predicted from the genomic databases and another cell line with an engineered methionine (ATG) as the start codon. The dog NMU receptors were also cloned from intestine RNA (NMUR1) and brain (NMUR2) and stable cell lines were generated as used for the human and rodent cell lines. […] To ensure high levels of expression in a heterologous system, a dog NMUR1 cell line was generated that contains an ATG as the start codon. Additionally, stable cell lines expressing the human receptors were generated in HEK-293/aeq 17 cells which stably express the aequorin gene under the CMV promoter. The human NMUR2 cDNA was cloned into pcDNA3.1 and human NMUR1 was subcloned into pIRES-puro (Clontech, Mountain View, Calif.), after transfection cells were selected in media containing G418 and either hygromycin (NMUR2) or puromycin (NMUR1).
(§2) The NMU receptors signal primarily through Gαq/11 proteins; therefore calcium mobilization assays can be utilized for functional activity.
(§3) Stable cell lines expressing human and or rodent NMUR1 or human NMUR2 receptors are plated at a density of 12,000 cells per well overnight on poly-lysine coated 384-well black-walled plates. The following day, the media is removed from the plates and the cells were subsequently loaded with Fluo-3 (Molecular Probes), a calcium sensitive dye, diluted in FLIPR buffer (1× Hank's buffered saline containing 20 mM HEPES, 0.1% BSA, 2.5 mM probenecid (Sigma) and 1.6 mM TR40). All reagents are from Invitrogen unless otherwise noted. Peptide stocks are resuspended in DMSO at a stock concentration of 2 mM and diluted in FLIPR buffer on the day of the experiment to a 4 μM working stock solution.
(§4) After a 90 minute incubation at room-temperature, cell plates are loaded onto a FLIPR (Molecular Devices) to monitor cellular fluorescence (excitation=488 nm; emission=540 nm) before and after compound/peptide addition. Eight to twelve point dose responses are tested on NMUR-expressing cell lines using FLIPR with 1 μM peptide as the highest dose. The response after peptide addition is taken as the maximum fluorescence units minus the fluorescence immediately prior to stimulation for each well. EC50 values are calculated using GraphPad Prism (San Diego, Calif.) software.
(§5) Percent activity refers to the maximum response at 1 μM compared to the human NMU-25 response at the same concentration.

human NMUR2 = biological target: T2, human NMUR2 (Homo sapiens, UniProt Q9GZQ4); assay: FLIPR calcium mobilization assay, human NMUR2-expressing cell line; assay type: cell-based
T2 construct: expressed in transfected cells; host or cells: FLP-In CHO cells and HEK-293 FLP-In cells (pcDNA5)
T2 sequence (Q9GZQ4 whole entry): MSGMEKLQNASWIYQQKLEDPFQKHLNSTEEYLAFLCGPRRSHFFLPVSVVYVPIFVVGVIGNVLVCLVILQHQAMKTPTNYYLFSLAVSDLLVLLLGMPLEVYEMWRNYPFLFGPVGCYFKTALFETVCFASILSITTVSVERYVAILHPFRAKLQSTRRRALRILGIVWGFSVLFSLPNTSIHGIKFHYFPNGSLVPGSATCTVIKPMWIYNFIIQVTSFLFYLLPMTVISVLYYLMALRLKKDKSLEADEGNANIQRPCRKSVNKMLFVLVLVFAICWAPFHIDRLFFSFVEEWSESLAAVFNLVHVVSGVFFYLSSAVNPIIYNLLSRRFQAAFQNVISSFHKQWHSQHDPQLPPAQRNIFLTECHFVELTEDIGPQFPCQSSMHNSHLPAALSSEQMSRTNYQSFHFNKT
Source text: as §1, §2, §3, §4, §5

human NMUR1 = biological target: T3, human NMUR1 (Homo sapiens, UniProt Q9HB89); assay: FLIPR calcium mobilization assay, human NMUR1-expressing cell line; assay type: cell-based
T3 construct: expressed in transfected cells; host or cells: FLP-In CHO cells and HEK-293 FLP-In cells (pcDNA5)
T3 sequence (Q9HB89 1-426): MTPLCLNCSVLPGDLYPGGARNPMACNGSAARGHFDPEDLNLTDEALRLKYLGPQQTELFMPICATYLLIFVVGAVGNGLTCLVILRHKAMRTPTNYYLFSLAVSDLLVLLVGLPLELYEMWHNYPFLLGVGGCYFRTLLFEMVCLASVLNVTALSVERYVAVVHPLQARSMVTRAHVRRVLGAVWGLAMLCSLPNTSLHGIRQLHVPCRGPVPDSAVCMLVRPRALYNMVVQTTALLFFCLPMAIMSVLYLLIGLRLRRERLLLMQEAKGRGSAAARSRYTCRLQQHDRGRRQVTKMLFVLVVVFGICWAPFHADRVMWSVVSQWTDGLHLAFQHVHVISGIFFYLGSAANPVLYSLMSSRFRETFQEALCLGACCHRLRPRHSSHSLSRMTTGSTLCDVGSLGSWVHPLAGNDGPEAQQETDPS
Source text: as §1, §2, §3, §4, §5

[1] = system: male C57BL/6 diet-induced obese mice; assay: Intraperitoneal glucose tolerance test (IPGTT); assay type: in vivo; conditions: one and three mpk injected 30 minutes before IPGTT, glucose 2 g/kg i.p., either dosage level
Protocol: Fourteen male C57BL/6 diet-induced obese mice (˜30 wk age) were used. Five hours before the experiment, food was removed, and clean cages were provided. Saline with or without NMS at one and three mpk were injected 30 minutes before the IPGTT and a blood sample was taken. Then glucose (2 g/kg) was injected intraperitoneally. Blood samples were taken after 15, 30, 60, 90, and 120 minutes and glucose levels were determined with the glucose oxidase method.

mouse NMUR1-ATG = biological target: T4, mouse NMUR1-ATG (Mus musculus, UniProt O55040); assay: FLIPR calcium mobilization assay, mouse NMUR1-ATG cell line; assay type: cell-based
T4 construct: expressed in transfected cells; host or cells: FLP-In CHO cells and HEK-293 FLP-In cells (pcDNA5)
T4 sequence (O55040 1-428): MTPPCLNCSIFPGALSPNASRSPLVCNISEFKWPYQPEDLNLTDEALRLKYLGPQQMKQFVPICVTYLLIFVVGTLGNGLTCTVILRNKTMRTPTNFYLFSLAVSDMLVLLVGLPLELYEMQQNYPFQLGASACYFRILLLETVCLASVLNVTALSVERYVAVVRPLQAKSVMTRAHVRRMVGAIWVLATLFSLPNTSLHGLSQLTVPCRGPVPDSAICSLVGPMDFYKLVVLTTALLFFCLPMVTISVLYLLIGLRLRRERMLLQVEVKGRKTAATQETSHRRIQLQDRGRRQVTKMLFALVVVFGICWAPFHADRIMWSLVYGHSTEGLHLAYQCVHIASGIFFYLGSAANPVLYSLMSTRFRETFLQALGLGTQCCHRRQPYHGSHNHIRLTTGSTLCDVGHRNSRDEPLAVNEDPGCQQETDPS
Source text: as §1, §2, §3, §4, §5

[2] = system: diet-induced obese animals; assay: Chronic administration by subcutaneous micro-osmotic pumps; assay type: in vivo, mice; conditions: two weeks
Protocol: Chronic administration of peptide was evaluated using micro-osmotic pumps designed to deliver 0.5 μl/h (Alza Co.). Pumps were filled with peptide or vehicle and implanted subcutaneously in the intrascapular space in diet-induced obese animals. Mice were fed ad libitum and food intake and body weight were measured daily for two weeks. […] Cumulative body weight change (FIG. 2A) and cumulative food intake (FIG. 2B) with two-week treatment of NMU and NMS are shown.

T1 sequence (Q8BZ39 whole entry): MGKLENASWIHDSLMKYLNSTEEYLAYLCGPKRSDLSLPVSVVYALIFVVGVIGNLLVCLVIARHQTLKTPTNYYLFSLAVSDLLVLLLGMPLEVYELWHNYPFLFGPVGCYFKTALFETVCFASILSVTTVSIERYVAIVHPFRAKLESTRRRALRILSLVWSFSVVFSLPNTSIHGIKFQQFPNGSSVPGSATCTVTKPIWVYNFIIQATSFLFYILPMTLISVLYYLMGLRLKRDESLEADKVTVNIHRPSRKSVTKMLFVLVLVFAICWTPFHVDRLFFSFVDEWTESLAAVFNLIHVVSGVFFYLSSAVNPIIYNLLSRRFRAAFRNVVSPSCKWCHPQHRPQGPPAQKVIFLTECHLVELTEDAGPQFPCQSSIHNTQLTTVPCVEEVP

Question: With “H-ILQRGSGTAAVDFTKKDHTATWGRPFFLFRPRN-NH2 [NMS, reference compound]” as the substance, how does the EC50 (mouse NMUR2; mouse NMUR2, FLIPR) read?
Answer: The EC50 was 7.8 nM.

Question: And the “% Activity” value (mouse NMUR2; mouse NMUR2, maximum response at 1 μM compared to the human NMU-25 response at the same concentration)?
Answer: Its value is 111%.

Question: And the EC50 (human NMUR2; human NMUR2, FLIPR)?
Answer: Its EC50 is 12.6 nM.

Question: What about the “% Activity” value (human NMUR2; human NMUR2, maximum response at 1 μM compared to the human NMU-25 response at the same concentration) of the same substance?
Answer: Its value is 107%.

Question: And the EC50 (human NMUR1; human NMUR1, FLIPR)?
Answer: Its EC50 is 6.7 nM.

Question: What about the “% Activity” value (human NMUR1; human NMUR1, maximum response at 1 μM compared to the human NMU-25 response at the same concentration) of the same substance?
Answer: Its value is 97%.

Question: And the “glucose metabolism (IPGTT)” value [1]?
Answer: The value was “enhanced glucose metabolism”.

Question: What about the EC50 (mouse NMUR1-ATG; FLIPR) of the same substance?
Answer: The EC50 was 7 nM.

Question: And the “% Activity” value (mouse NMUR1-ATG; maximum response at 1 μM compared to the human NMU-25 response at the same concentration)?
Answer: Its value is 102%.

Question: What about the “effect on food intake and body weight compared with NMU” value [2] of the same substance?
Answer: The value was “appeared to be greater than that observed for NMU”.

Question: And the body weight ([2]; cumulative change, FIG. 2A)?
Answer: The body weight was “significantly reduced”.

Question: And the food intake ([2]; cumulative, FIG. 2B)?
Answer: Its food intake is “significantly reduced”.
